According to patent US7365221B2, “Monoacylated betulin and dihydrobetulin derivatives, preparation thereof and use thereof” (priority 2002, dated 2008):
Like-named read-outs stand apart in the source and are kept apart here.

Tests used:
[1] = test system: HIV-1 replication in H9 lymphocyte cells; conditions: Fujioka et al. 1994, cited from earlier work
HIV-1 (IIIB isolate) = format: cell-based; conditions: average of at least two experiments; cell line not stated; read-out: Anti-HIV Activity EC50
Experimental: (§1) The biological evaluation of HIV-1 inhibition was carried out as follows according to established protocols (Montefiori et al., Clin Microbiol. 26:231-235 (1988)). The human T-cell line, MT-2, was maintained in continuous culture with complete medium (RPMI 1640 with 10% fetal calf serum supplemented with L-glutamine at 5% CO2 and 37° C.). Test samples were first dissolved in dimethyl sulfoxide at a concentration of 10 mg/ml to generate master stocks with dilutions made into tissue culture media to generate working stocks. The following drug concentrations were routinely used for screening: 100, 20, 4 and 0.8 μg/ml. For agents found to be active, additional dilutions were prepared for subsequent testing so that an accurate EC50 value (defined below) could be determined. Test samples were prepared and to each sample well was added 90 μl of media containing MT-2 cells at 3×10^5 cells/ml and 45 μl of virus inoculum (HIV-1 IIIIB isolate) at a concentration necessary to result in 80% killing of the cell targets at 5 days post-infection (PI). Control wells containing virus and cells only (no drug) and cells only (no virus or drug) were also prepared. A second set of samples were prepared identical to the first and were added to cells under identical conditions without virus (mock infection) for toxicity determinations (IC50 defined below). In addition, AZT was also assayed during each experiment as a positive drug control. On day 5 PI, virus-induced cell killing was determined by measuring cell viability using the XTT method. Compound toxicity was determined by XTT using the mock-infected samples. If a test sample had suppressive capability and was not toxic, its effects were reported in the following terms: IC50, the concentration of test sample which was toxic to 50% of the mock-infected MT-2 cells; EC50, the concentration of the test sample that was able to suppress HIV replication by 50%; and the Therapeutic index (TI) the ratio of the IC50 to EC50.
(§2) Compounds of the present invention were assayed for anti-HIV activity according to the following assay procedures. The T cell line, H9, and the promonocytic cell line, U937, were maintained separately in continuous culture with complete medium (RPMI 1640 with 10% fetal calf serum) at 5% CO2 and 37° C. The cell lines were used in experiments only when in the logarithmic phase of growth, whereas uninfected peripheral blood mononuclear cells (PBMCs) were first stimulated with PHA (1 μg/mL) for three days. All cell targets were incubated with HIV-1 (IIIB isolate, 1×10^6 TCID50/mL) for one hour at 37° C. and 5% CO2. The cell lines and PBMCs were washed thoroughly to remove unadsorbed virions and resuspended at 4×10^5 cells/mL in complete medium or complete medium with 10% v/v interleukin 2 (IL-2), respectively. 100 μL aliquots were placed into wells of 96-well tissue culture plates containing an equal volume of test compounds (diluted in the appropriate culture medium). The toxicity of each compound was assessed by determining the number of compound-exposed uninfected cells that remained after five days at 37° C. and 5% CO2. A p24 antigen ELISA assay was used to determine the level of virus released in the medium of the HIV-infected cultures. […] The cutoff for the p24 ELISA assay was 12.5 pg/mL. p24 in the culture medium was quantitated against a standard curve containing known amounts of p24. The effective (EC50) and inhibitory (IC50) concentrations for anti-HIV activity and cytotoxicity, respectively, were determined.

uninfected cells = test: Cytotoxicity on compound-exposed uninfected cells
Experimental: as §1, §2

[2] = H9 lymphocyte cells, read-out: EC50, inhibitory activity against HIV-1 replication
[3] = read-out: Cytotoxicity IC50, average of at least two experiments, uninfected cells

Compound | EC50 (HIV-1 (IIIB isolate)) [nM] | IC50 (uninfected cells) [nM] | further results
CC(=O)[C@@H]1CC[C@]2(C(=O)O)CC[C@]3(C)[C@H](CC[C@@H]4[C@@]5(C)CC[C@H](O)C(C)(C)[C@@H]5CC[C@]43C)[C@@H]12 [platanic acid] | – | – | EC50 [1, 2]: 6500 nM
C=C(C)[C@@H]1CC[C@]2(CO)CC[C@]3(C)[C@H](CC[C@@H]4[C@@]5(C)CC[C@H](OC(=O)CC(C)(C)C(=O)O)C(C)(C)[C@@H]5CC[C@]43C)[C@@H]12 [Compound 6] | 5.6 | 33500 | –
C=C(C)[C@@H]1CC[C@]2(CO)CC[C@]3(C)[C@H](CC[C@@H]4[C@@]5(C)CC[C@H](OC(=O)CCCC(=O)O)C(C)(C)[C@@H]5CC[C@]43C)[C@@H]12 [Compound 10, 3-O-glutaryl betulin] | 66.2 | – | IC50 (uninfected cells; [3]): 44400 nM
C=C(C)[C@@H]1CC[C@]2(CO)CC[C@]3(C)[C@H](CC[C@@H]4[C@@]5(C)CC[C@H](OC(=O)CC(C)(C)CC(=O)O)C(C)(C)[C@@H]5CC[C@]43C)[C@@H]12 [Compound 8] | 4.4 | 28900 | –
C=C(C)[C@@H]1CC[C@]2(CO)CC[C@]3(C)[C@H](CC[C@@H]4[C@@]5(C)CC[C@H](OC(=O)CCCC(=O)OCC)C(C)(C)[C@@H]5CC[C@]43C)[C@@H]12 [Compound 18, 3-O-glutaryl betulin ethyl ester] | 16.9 | – | IC50 (uninfected cells; [3]): 36400 nM
C=C(C)[C@@H]1CC[C@]2(C(=O)O)CC[C@]3(C)[C@H](CC[C@@H]4[C@@]5(C)CC[C@H](O)C(C)(C)[C@@H]5CC[C@]43C)[C@@H]12 [Betulinic acid, betulinic acid] | – | – | EC50 [1, 2]: 1400 nM
C=C(C)[C@@H]1CC[C@]2(CO)CC[C@]3(C)[C@H](CC[C@@H]4[C@@]5(C)CC[C@H](OC(=O)COCC(=O)O)C(C)(C)[C@@H]5CC[C@]43C)[C@@H]12 [Compound 12] | 24.6 | > 44800 | –
CC(C)[C@@H]1CC[C@]2(C(=O)O)CC[C@]3(C)C(CCC4[C@@]5(C)CC[C@H](O)C(C)(C)C5CC[C@]43C)C12 (stereo partly shown) [dihydrobetulinic acid] | – | – | EC50 ([1]; unit inferred, read-out: EC50, anti-HIV activity): 900 nM
